In brackets after ≈: the same amount, converted by molar mass.
How the values were obtained:
Assay type in all cases: functional
Details in all cases: read-out: ED50 (the source's name)
[1] = tested on: HCT-8; assay: Cytotoxicity against human HCT8 cells
[2] = tested on: KB; assay: Cytotoxicity against human KB cells
[3] = tested on: L1210; assay: Cytotoxicity against mouse L1210 cells
[4] = tested on: A549; assay: Cytotoxicity against human A549 cells
[5] = tested on: P388; assay: Cytotoxicity against mouse P388 cells

SMILES	EC50 [1]	EC50 [2]	EC50 [3]	EC50 [4]	EC50 [5]
C[C@@]12O[C@H]3C[C@@H](O1)[C@]1(C=O)[C@H]4[C@H](O)C[C@]5(C)[C@@H](c6ccc(=O)oc6)CC[C@]5(O)[C@@H]4CC[C@@]1(C3)O2 [BRYOPHYLLIN A]	0.03 µg/mL (≈ 0.0635 µM)	0.014 µg/mL (≈ 0.0296 µM)	> 4 ng/mL	0.01 µg/mL (≈ 0.0212 µM)	> 4 ng/mL
CC(=O)O[C@H]1C[C@@H](O)[C@]2(C=O)[C@H]3CC[C@]4(C)[C@@H](c5ccc(=O)oc5)CC[C@]4(O)[C@@H]3CC[C@]2(O)C1	0.01 µg/mL (≈ 0.0211 µM)	< 0.04 µg/mL	> 4 ng/mL	0.04 µg/mL (≈ 0.0843 µM)	> 4 ng/mL
CC(=O)O[C@@H]1C[C@H](O)C[C@@]2(O)CC[C@@H]3[C@@H]4[C@@H](C[C@]5(C)[C@@H](c6ccc(=O)oc6)CC[C@]35O)O[C@H](O)[C@]412 [BRYOPHYLLIN B]		< 0.08 µg/mL			
